IC50 data for 14 compounds are collected here from US20260347372A1, “SMALL MOLECULE INHIBITORS OF KRAS G12D MUTANT” (MERCK SHARP & DOHME LLC, priority 2023, published 2026).

SMILES strings stand for the structures.

One assay addresses KRAS WT (Homo sapiens, UniProt P01116). Briefly: SOS-catalyzed nucleotide exchange assay, KRAS WT (Procedure A). As to conditions: GNE. Type of assay: biochemical. In short, it runs like this:
(§1)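 Preformed TR-FRET complex of biotinylated KRAS (G12C carries C51S/C80L/C118S; others native sequence), Bodipy-GDP and Tb-streptavidin preincubated with compound 60 min at room temperature. Exchange started with human SOS plus 3 mM GTP for 60 min (G13D 30 min). Final RAS/SOS: G12C 3/40 nM; WT, G12D 1/40 nM; G13D 1.25/0 nM. 520/495 nm ratio normalised, fitted to four-parameter logistic.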

In another assay the target is KRAS G12D (Homo sapiens, UniProt P01116, G12D). Briefly: SOS-catalyzed nucleotide exchange assay, KRAS G12D (Procedure A). Format: biochemical. As to conditions: guanine nucleotide exchange (GNE). The method in brief: as §1
KRAS G12D, sequence (P01116 with tags, fused parts or gaps isoform P01116-2 G12D): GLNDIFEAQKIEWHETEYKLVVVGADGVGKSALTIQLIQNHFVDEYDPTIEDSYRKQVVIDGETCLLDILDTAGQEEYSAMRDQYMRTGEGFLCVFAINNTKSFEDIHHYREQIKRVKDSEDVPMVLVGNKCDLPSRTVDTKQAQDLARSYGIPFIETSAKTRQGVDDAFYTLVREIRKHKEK
A further assay deals with KRAS G12V (Homo sapiens, UniProt P01116, G12V). Briefly: SOS-catalyzed nucleotide exchange assay, KRAS G12V (Procedure A). Type of assay: biochemical. As to conditions: GNE. The method in brief:
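Biotinylated KRAS G12V was loaded with Bodipy-GDP alongside Terbium-streptavidin to form a TR-FRET complex, which was preincubated with compounds for 60 minutes in 384-well plates. Human SOS protein and unlabeled GTP were then added for 90 minutes, giving final concentrations of 1.25 nM KRAS-G12V, 160 nM SOS and 3 mM GTP. The 520/495 nm emission ratio was read on an Envision.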

The next assay concerns the target T1, AsPC-1 cells (Homo sapiens, UniProt P01116, G12D).
T1 construct: p-ERK/total ERK AlphaSureFire read-out
Briefly: Cellular phospho-ERK assay, AsPC-1 cells (KRAS G12D). Type of assay: cell-based. The conditions noted are these: 2 hours, read-out: AsPC1 pERK IC50. In short, it runs like this:
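PANC08.13 or AsPC-1 cells (homozygous KRAS G12D) were seeded overnight, then treated for 2 h at 37 °C with a 10-point 1:3 titration from 30 μM. Lysates were assayed by AlphaLISA SureFire for p-ERK and total ERK. IC50 came from a 4-parameter fit of the p-ERK/total ERK ratio.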

T1 sequence (P01116 1-188 isoform P01116-2 G12D): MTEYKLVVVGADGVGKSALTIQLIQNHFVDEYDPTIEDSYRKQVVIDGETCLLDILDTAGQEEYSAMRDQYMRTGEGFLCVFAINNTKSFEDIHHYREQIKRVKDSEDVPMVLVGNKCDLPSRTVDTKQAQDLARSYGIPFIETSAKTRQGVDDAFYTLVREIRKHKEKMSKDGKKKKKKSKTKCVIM
KRAS WT, sequence (P01116 with tags, fused parts or gaps isoform P01116-2): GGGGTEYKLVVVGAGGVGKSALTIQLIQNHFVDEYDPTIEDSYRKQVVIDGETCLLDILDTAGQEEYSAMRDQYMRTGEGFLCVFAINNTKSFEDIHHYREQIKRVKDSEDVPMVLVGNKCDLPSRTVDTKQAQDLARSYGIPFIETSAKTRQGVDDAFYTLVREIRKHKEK
KRAS G12V, sequence (P01116 with tags, fused parts or gaps isoform P01116-2 G12V): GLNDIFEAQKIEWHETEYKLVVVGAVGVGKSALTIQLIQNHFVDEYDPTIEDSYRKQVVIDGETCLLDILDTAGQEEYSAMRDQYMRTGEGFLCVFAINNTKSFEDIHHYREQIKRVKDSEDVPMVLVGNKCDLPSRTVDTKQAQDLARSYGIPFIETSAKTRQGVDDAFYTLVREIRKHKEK

With `C#Cc1c(F)ccc2cc3[nH]ncc3c(-c3nccc4c3sc3nc(OC[C@]5(CN6CCC7(CC6)CC(Cc6cn(C)nn6)C7)CC5(F)F)nc(N5C[C@H]6CC[C@@H](C5)N6)c34)c12` [Ex-106, 4-((1R,5S)-3,8-diazabicyclo[3.2.1]octan-3-yl)-2-(((R)-2,2-difluoro-1-((2-((1-methyl-1H-1,2,3-triazol-4-yl)methyl)-7-azaspiro[3.5]nonan-7-yl)methyl)cyclopropyl)methoxy)-8-(5-ethynyl-6-fluoro-1H-benzo[f]indazol-4-yl)pyrido[4′,3′:4,5]thie-no[2,3-d]pyrimidine], the IC50 came out at 877 nM against KRAS WT, 2.03 nM on KRAS G12D, 1700 nM against KRAS G12V and 74 nM at AsPC-1 cells.

With `C#Cc1c(F)ccc2cc3[nH]ncc3c(-c3nccc4c3sc3nc(OC[C@@]56CCCN5C[C@H](F)C6)nc(N5C[C@H]6CC[C@@H](C5)N6CCCC#N)c34)c12` [Ex-88, 4-((1R,5S)-3-(8-(5-ethynyl-6-fluoro-1H-benzo[f]indazol-4-yl)-2-(((2R,7aS)-2-fluorotetrahydro-1H-pyrrolizin-7a(5H)-yl)methoxy)pyrido[4′,3′:4,5]thieno[2,3-d]pyrimidin-4-yl)-3,8-diazabicyclo[3.2.1]octan-8-yl)butanenitrile], the IC50 on KRAS WT was found to be 743 nM; against KRAS G12D it was 100 nM; at KRAS G12V it was 1780 nM; at AsPC-1 cells, 368 nM.

Consider `C#Cc1csc2cc3[nH]ncc3c(-c3nccc4c3sc3nc(OC[C@@]56CCCN5C/C(=C\F)C6)nc(N5C[C@H]6CC[C@@H](C5)N6)c34)c12` [Ex-85, 4-((1R,5S)-3,8-diazabicyclo[3.2.1]octan-3-yl)-8-(5-ethynyl-1H-thieno[3,2-f]indazol-4-yl)-2-(((S,Z)-2-(fluoromethylene)tetrahydro-1H-pyrrolizin-7a(5H)-yl)methoxy)pyrido[4′,3′:4,5]thieno[2,3-d]pyrimidine], for which the IC50 against KRAS WT is 32.1 nM; against KRAS G12D, 2.06 nM; at KRAS G12V it was 28.2 nM; at AsPC-1 cells, 8.52 nM.

Turning to `Cc1cc2[nH]ncc2c(-c2nccc3c2sc2nc(OCCN4CCOC4=O)nc(N4C[C@H]5CC[C@@H](C4)N5)c23)c1C(F)(F)F` [Ex-40, 3-(2-((4-((1R,5S)-3,8-diazabicyclo[3.2.1]octan-3-yl)-8-(6-methyl-5-(trifluoromethyl)-1H-indazol-4-yl)pyrido[4′,3′:4,5]thieno[2,3-d]pyrimidin-2-yl)oxy)ethyl)oxazolidin-2-one], the IC50 against KRAS WT was > 11100 nM; against KRAS G12D it was 5880 nM; at KRAS G12V it was > 11100 nM; at AsPC-1 cells, > 30000 nM.

`C#Cc1c(F)ccc2cc3[nH]ncc3c(-c3nccc4c3sc3nc(OCC5(C(F)(F)F)CCOCC5)nc(N5C[C@H]6CC[C@@H](C5)N6)c34)c12` [Ex-110, 4-((1R,5S)-3,8-diazabicyclo[3.2.1]octan-3-yl)-8-(5-ethynyl-6-fluoro-1H-benzo[f]indazol-4-yl)-2-((4-(trifluoromethyl)tetrahydro-2H-pyran-4-yl)methoxy)pyrido[4′,3′:4,5]thieno[2,3-d]pyrimidine]: the IC50 against KRAS WT is > 11100 nM; at KRAS G12D, 2050 nM; against KRAS G12V it was > 11100 nM; on AsPC-1 cells it was 8280 nM.

For the compound `F[C@H]1CN2CCC[C@@]2(COc2nc(N3C[C@H]4CC[C@@H](C3)N4)c3c(n2)sc2c(-c4c(C5CC5)c(C(F)(F)F)cc5[nH]ncc45)nccc23)C1` [Ex-80, 4-((1R,5S)-3,8-diazabicyclo [3.2.1]octan-3-yl)-8-(5-cyclopropyl-6-(trifluoromethyl)-1H-indazol-4-yl)-2-(((2R,7aS)-2-fluorotetrahydro-1H-pyrrolizin-7a(5H)-yl)methoxy)pyrido [4′,3′:4,5]thieno [2,3-d]pyrimi-dine], the IC50 at KRAS WT worked out at 706 nM; at KRAS G12D it was 3.57 nM; on KRAS G12V, 734 nM; at AsPC-1 cells it was 411 nM.

For `C#Cc1c(F)ccc2cc3[nH]ncc3c(-c3nccc4c3sc3nc(OC[C@]5(CN(C)C)CC5(F)F)nc(N5C[C@H]6CC[C@@H](C5)N6)c34)c12` [Ex-96, 1-((1R)-1-(((4-((1R,5S)-3,8-diazabicyclo[3.2.1]octan-3-yl)-8-(5-ethynyl-6-fluoro-1H-benzo[f]indazol-4-yl)pyrido[4′,3′:4,5]thie-no[2,3-d]pyrimidin-2-yl)oxy)methyl)-2,2-difluorocyclopropyl)-N,N-dimethylmethanamine], the concentration for half-maximal inhibition (IC50) against KRAS WT worked out at 259 nM; against KRAS G12D, 1.62 nM; against KRAS G12V it was 248 nM; at AsPC-1 cells, 22.8 nM.

As for `C#Cc1c(F)ccc2cc3[nH]ncc3c(-c3nccc4c3sc3nc(OC[C@@]56CCCN5C[C@@H](F)C6)nc(N5CC6CCC(C5)N6)c34)c12` [Ex-108, 4-(3,8-diazabicyclo[3.2.1]octan-3-yl)-8-(5-ethynyl-6-fluoro-1H-benzo[f]indazol-4-yl)-2-(((2S,7aS)-2-fluorotetrahydro-1H-pyrrolizin-7a(5H)-yl)methoxy)pyrido[4′, 3′:4,5]thieno[2,3-d]pyrimidine], the IC50 against KRAS WT worked out at 215 nM; at KRAS G12D, 1.62 nM; at KRAS G12V it was 372 nM; at AsPC-1 cells, 16.2 nM.

Regarding `F[C@H]1CN2CCC[C@@]2(COc2nc(N3C[C@H]4CC[C@@H](C3)N4)c3c(n2)sc2c(-c4c5cn[nH]c5cc5cccc(Cl)c45)nccc23)C1` [Ex-58, 4-((1R,5S)-3,8-diazabicyclo[3.2.1]octan-3-yl)-8-(5-chloro-1H-benzo[/]indazol-4-yl)-2-(((2R,7aS)-2-fluorotetrahydro-1H-pyrrolizin-7a(5H)-yl)methoxy)pyrido[4′,3′:4,5]thieno[2,3-d]pyrimidine], the IC50 stood at 1830 nM at KRAS WT, 9.3 nM against KRAS G12D, 2560 nM on KRAS G12V and 447 nM at AsPC-1 cells.

For `Cc1cc2[nH]ncc2c(-c2nccc3c2sc2nc(OCC4CS(=O)(=O)C4)nc(N4C[C@H]5CC[C@@H](C4)N5)c23)c1C(F)(F)F` [Ex-27, 3-(((4-((1R,5S)-3,8-diazabicyclo[3.2.1]octan-3-yl)-8-(6-methy1-5-(trifluoromethyl)-1H-indazol-4-yl)pyrido[4′,3′:4,5]thieno[2,3-d]pyrimidin-2-yl)oxy)methyl)thietane 1,1-dioxide], the IC50 against KRAS WT is > 11100 nM; against KRAS G12D, 3590 nM; against KRAS G12V, > 11100 nM; at AsPC-1 cells it was 5730 nM.

For the compound `C#Cc1c(F)ccc2cc3[nH]ncc3c(-c3nccc4c3sc3nc(OC[C@@]56CCC7(CC7)N5C[C@H](F)C6)nc(N5C[C@H]6CC[C@@H](C5)N6)c34)c12` [Ex-97, 4-((1R,5S)-3,8-diazabicyclo[3.2.1]octan-3-yl)-8-(5-ethynyl-6-fluoro-1H-benzo[f]indazol-4-yl)-2-(((6′R,7a′S)-6′-fluorotetrahydrospiro[cy-clopropane-1,3′-pyrrolizin]-7a′(5'H)-yl)methoxy)pyrido[4′, 3′:4,5]thieno[2,3-d]pyrimidine], the IC50 came out at 1290 nM against KRAS WT, 3 nM against KRAS G12D, 3130 nM against KRAS G12V and 210 nM at AsPC-1 cells.

As for `C#Cc1c(F)ccc2cc3[nH]ncc3c(-c3nccc4c3sc3nc(OC[C@]5(CN6CCC(CCc7cn(C)nn7)CC6)CC5(F)F)nc(N5C[C@H]6CC[C@@H](C5)N6)c34)c12` [Ex-105, 4-((1R,5S)-3,8-diazabicyclo[3.2.1]octan-3-yl)-2-(((R)-2,2-difluoro-1-((4-(2-(1-methyl-1H-1,2,3-triazol-4-yl)ethyl)piperidin-1-yl)methyl)cyclopropyl)methoxy)-8-(5-ethynyl-6-fluoro-1H-benzo[f]indazol-4-yl)pyrido[4′,3′:4,5]thie-no[2,3-d]pyrimidine], the concentration for half-maximal inhibition (IC50) against KRAS WT came out at 279 nM; against KRAS G12D it was 1.6 nM; against KRAS G12V it was 475 nM; on AsPC-1 cells it was 67 nM.

Turning to `Cc1cc2[nH]ncc2c(-c2nccc3c2sc2nc(OCC4CCS(=O)(=O)C4)nc(N4C[C@H]5CC[C@@H](C4)N5)c23)c1C(F)(F)F` (stereo partly drawn) [Ex-30, 3-(((4-((1R,5S)-3,8-diazabicyclo[3.2.1]octan-3-yl)-8-(6-methyl-5-(trifluoromethyl)-1H-indazol-4-yl)pyrido[4′,3′:4,5]thieno[2,3-d]pyrimidin-2-yl)oxy)methyl)tetrahydrothio-phene 1,1-dioxide], the IC50 was > 11100 nM on KRAS WT, 2600 nM on KRAS G12D, > 11100 nM on KRAS G12V and > 30000 nM at AsPC-1 cells.

On to `C#Cc1c(F)ccc2cc3[nH]ncc3c(-c3nccc4c3sc3nc(OC[C@]5(CN6CCC7(CCC7)CC6)CC5(F)F)nc(N5C[C@H]6CC[C@@H](C5)N6)c34)c12` [Ex-98, 2-(((R)-1-((7-azaspiro[3.5]nonan-7-yl)methyl)-2,2-difluorocyclopropyl)meth-oxy)-4-((1R,5S)-3,8-diazabicyclo[3.2.1]octan-3-yl)-8-(5-ethynyl-6-fluoro-1H-benzo[f]indazol-4-yl)pyrido[4′,3′:4,5]thie-no[2,3-d]pyrimidine], for which the IC50 on KRAS WT was 6360 nM; against KRAS G12D it was 6.92 nM; on KRAS G12V it was > 11100 nM; on AsPC-1 cells, 362 nM.
